The assay deals with HBsAg. Kind of assay: HBsAg assay (CLIA) in HepG2.2.15 cells. Format: cell-based, HBV. Conditions: Hepatitis B virus, HepG2.2.15, read-out: IC50 (HBsAg assay). Here is the method: HepG2.2.15 cells (Acs et al. Proc Natl Acad Sci USA, 84, (1987), 4641-4), a constitutively HBV-expressing cell line were cultured in DMEM+Glutamax-I medium (Invitrogen, Carlsbad, Calif., USA), supplemented with 10% fetal bovine serum (Invitrogen) and G418 (Invitrogen) at a final concentration of 200 mg/L and maintained in 5% CO2 at 37° C.
HepG2.2.15 cells were seeded in duplicate into white, 96-well plates at 1.5×10^4 cells/well. The cells were treated with a three-fold serial dilution series of the compounds in DMSO. The final DMSO concentration in all wells was 1% and DMSO was used as no drug control.
The HBsAg chemiluminescence immunoassay (CLIA) kit (Autobio Diagnostics Co., Zhengzhou, China, Catalog number: CL0310-2) was used to measure the levels of secreted HBV antigens semi-quantitatively. For the detection 50 μL/well culture supernatant was used and HBsAg was quantified using HBsAg chemiluminescence immunoassay (CLIA) kit (Autobio Diagnostics Co., Zhengzhou, China, Catalog number: CL0310-2), 50 μL of the supernatant was transferred to the CLIA assay plate and 50 μL of enzyme conjugate reagent was added into each well. The plates were sealed and gently agitated for 1 hour at room temperature. The supernatant-enzyme-mixture was discarded and wells were washed 6 times with 300 μL of PBS. The residual liquid was removed by plating the CLIA plate […] on absorbent tissue paper. 25 μL of substrates A and B were added to each well. Luminance was measured using a luminometer (Mithras LB 940 Multimode Microplate Reader) after 10 minutes incubation. Dose-response curves were generated and the IC50 value was extrapolated by using the E-WorkBook Suite (ID Business Solutions Ltd., Guildford, UK). The IC50 was defined as the compound concentration (or conditioned media log dilution) at which HBsAg secretion was reduced by 50% compared to the no drug control.

Structures are written as SMILES.

Here are results for 27 molecules from patent US11225482B2, “Dihydropyrrolopyrimidines for the treatment and prophylaxis of hepatitis B virus infection” (Hoffmann-La Roche Inc., priority 2017, dated 2022).

As for `Cc1cnc(C(=O)N2Cc3nc(-c4ncccn4)ncc3C2C)s1` (stereo not drawn) [Example 1, (5-Methyl-2-pyrimidin-2-yl-5,7-dihydropyrrolo[3,4-d]pyrimidin-6-yl)-(5-methylthiazol-2-yl)methanone], the IC50 was 700 nM.

Consider `COc1ccc(C(=O)N2Cc3nc(-c4ncccn4)ncc3C2C)s1` (stereo not drawn) [Example 2, (5-Methoxy-2-thienyl)-(5-methyl-2-pyrimidin-2-yl-5,7-dihydropyrrolo[3,4-d]pyrimidin-6-yl)methanone], for which the IC50 turned out to be 330 nM.

`CC1c2cnc(-c3ncccn3)nc2CN1C(=O)c1cc(C(F)(F)F)cs1` (stereo not drawn) [Example 3, (5-Methyl-2-pyrimidin-2-yl-5,7-dihydropyrrolo[3,4-d]pyrimidin-6-yl)-[4-(trifluoromethyl)-2-thienyl]methanone]: the IC50 was determined as 546 nM.

With `COc1cc(F)cc(C(=O)N2Cc3nc(-c4ncccn4)ncc3C2C)c1` (stereo not drawn) [Example 4, (3-Fluoro-5-methoxy-phenyl)-(5-methyl-2-pyrimidin-2-yl-5,7-dihydropyrrolo[3,4-d]pyrimidin-6-yl)methanone], the IC50 came out at 14100 nM.

In the case of `CC1c2cnc(-c3ncccn3)nc2CN1C(=O)c1cccs1` (stereo not drawn) [Example 5, (5-Methyl-2-pyrimidin-2-yl-5,7-dihydropyrrolo[3,4-d]pyrimidin-6-yl)-(2-thienyl)methanone], the IC50 was 1700 nM.

As to `Cc1csc(C(=O)N2Cc3nc(-c4ncccn4)ncc3C2C)c1` (stereo not drawn) [Example 6, (5-Methyl-2-pyrimidin-2-yl-5,7-dihydropyrrolo[3,4-d]pyrimidin-6-yl)-(4-methyl-2-thienyl)methanone], the IC50 is 1110 nM.

For the molecule `CC1c2cnc(-c3ncccn3)nc2CN1C(=O)c1cc(Br)cs1` (stereo not drawn) [Example 7, (4-Bromo-2-thienyl)-(5-methyl-2-pyrimidin-2-yl-5,7-dihydropyrrolo[3,4-d]pyrimidin-6-yl)methanone], the IC50 came to 920 nM.

For `Cc1ccc(C(=O)N2Cc3nc(-c4ncccn4)ncc3C2C)s1` (stereo not drawn) [Example 8, (5-Methyl-2-pyrimidin-2-yl-5,7-dihydropyrrolo[3,4-d]pyrimidin-6-yl)-(5-methyl-2-thienyl)methanone], the IC50 stood at 681 nM.

On to `CC1c2cnc(-c3ncccn3)nc2CN1C(=O)c1ccc(Cl)s1` (stereo not drawn) [Example 9, (5-Chloro-2-thienyl)-(5-methyl-2-pyrimidin-2-yl-5,7-dihydropyrrolo[3,4-d]pyrimidin-6-yl)methanone], for which the IC50 worked out at 380 nM.

As for `CC1c2cnc(-c3ncccn3)nc2CN1C(=O)c1cnn(C)c1` (stereo not drawn) [Example 11, (1-Methylpyrazol-4-yl)-(5-methyl-2-pyrimidin-2-yl-5,7-dihydropyrrolo[3,4-d]pyrimidin-6-yl)methanone], the IC50 came out at 6170 nM.

As to `CC1c2cnc(-c3ncccn3)nc2CN1C(=O)c1ccn(C)n1` (stereo not drawn) [Example 13, (1-Methylpyrazol-3-yl)-(5-methyl-2-pyrimidin-2-yl-5,7-dihydropyrrolo[3,4-d]pyrimidin-6-yl)methanone], the IC50 worked out at 3540 nM.

`CC1c2cnc(-c3ncccn3)nc2CN1C(=O)c1nc2ccccc2[nH]1` (stereo not drawn) [Example 14, 1H-Benzimidazol-2-yl-(5-methyl-2-pyrimidin-2-yl-5,7-dihydropyrrolo[3,4-d]pyrimidin-6-yl)methanone]: the 50% inhibitory concentration (IC50) was 422 nM.

Regarding `COc1ccc(C(=O)N2Cc3nc(-c4ncccn4)ncc3C2C)cc1` (stereo not drawn) [Example 15, (4-Methoxyphenyl)-(5-methyl-2-pyrimidin-2-yl-5,7-dihydropyrrolo[3,4-d]pyrimidin-6-yl)methanone], the IC50 turned out to be 26100 nM.

`CCn1ccc(C(=O)N2Cc3nc(-c4ncccn4)ncc3C2C)n1` (stereo not drawn) [Example 16, (1-Ethylpyrazol-3-yl)-(5-methyl-2-pyrimidin-2-yl-5,7-dihydropyrrolo[3,4-d]pyrimidin-6-yl)methanone]: the IC50 was 4690 nM.

As to `CC1c2cnc(-c3ncccn3)nc2CN1C(=O)c1ccc(Br)s1` (stereo not drawn) [Example 17, (5-Bromo-2-thienyl)-(5-methyl-2-pyrimidin-2-yl-5,7-dihydropyrrolo[3,4-d]pyrimidin-6-yl)methanone], the IC50 was 761 nM.

For `CC1c2cnc(-c3ncccn3)nc2CN1C(=O)c1ccc([N+](=O)[O-])s1` (stereo not drawn) [Example 18, (5-Methyl-2-pyrimidin-2-yl-5,7-dihydropyrrolo[3,4-d]pyrimidin-6-yl)-(5-nitro-2-thienyl)methanone], the IC50 is 724 nM.

In the case of `CC1c2cnc(-c3ncccn3)nc2CN1C(=O)c1ccc2ccccc2c1` (stereo not drawn) [Example 19, (5-Methyl-2-pyrimidin-2-yl-5,7-dihydropyrrolo[3,4-d]pyrimidin-6-yl)-(2-naphthyl)methanone], the half-inhibitory concentration (IC50) is 7860 nM.

Consider `CC1c2cnc(-c3ncccn3)nc2CN1C(=O)c1cn2ccccc2n1` (stereo not drawn) [Example 20, Imidazo[1,2-a]pyridin-2-yl-(5-methyl-2-pyrimidin-2-yl-5,7-dihydropyrrolo[3,4-d]pyrimidin-6-yl)methanone], for which the IC50 was 502 nM.

Regarding `COc1cncc(C(=O)N2Cc3nc(-c4ncccn4)ncc3C2C)n1` (stereo not drawn) [Example 22, (6-Methoxypyrazin-2-yl)-(5-methyl-2-pyrimidin-2-yl-5,7-dihydropyrrolo[3,4-d]pyrimidin-6-yl)methanone], the IC50 is 4730 nM.

Consider `CC1c2cnc(-c3ncccn3)nc2CN1C(=O)c1n[nH]c2ccccc12` (stereo not drawn) [Example 23, 1H-indazol-3-yl-(5-methyl-2-pyrimidin-2-yl-5,7-dihydropyrrolo[3,4-d]pyrimidin-6-yl)methanone], for which the IC50 was 232 nM.

As to `CC1c2cnc(-c3ncccn3)nc2CN1C(=O)c1cnn2ccccc12` (stereo not drawn) [Example 24, (5-Methyl-2-pyrimidin-2-yl-5,7-dihydropyrrolo[3,4-d]pyrimidin-6-yl)-pyrazolo[1,5-a]pyridin-3-yl-methanone], the IC50 was 156 nM.

`CC1c2cnc(-c3ncccn3)nc2CN1C(=O)c1ccc2ncsc2c1` (stereo not drawn) [Example 25, 1,3-Benzothiazol-6-yl-(5-methyl-2-pyrimidin-2-yl-5,7-dihydropyrrolo[3,4-d]pyrimidin-6-yl)methanone]: the IC50 was found to be 29000 nM.

Regarding `CC1c2cnc(-c3ncccn3)nc2CN1C(=O)c1cnc2ccccn12` (stereo not drawn) [Example 26, Imidazo[1,2-a]pyridin-3-yl-(5-methyl-2-pyrimidin-2-yl-5,7-dihydropyrrolo[3,4-d]pyrimidin-6-yl)methanone], the IC50 is 220 nM.

In the case of `CC1c2cnc(-c3ncccn3)nc2CN1C(=O)c1noc2ccccc12` (stereo not drawn) [Example 27, 1,2-Benzoxazol-3-yl-(5-methyl-2-pyrimidin-2-yl-5,7-dihydropyrrolo[3,4-d]pyrimidin-6-yl)methanone], the IC50 was determined as 620 nM.

As to `CC1c2cnc(-c3ncccn3)nc2CN1C(=O)c1nc2ccccc2s1` (stereo not drawn) [Example 28, 1,3-Benzothiazol-2-yl-(5-methyl-2-pyrimidin-2-yl-5,7-dihydropyrrolo[3,4-d]pyrimidin-6-yl)methanone], the IC50 amounted to 1790 nM.

Consider `CC1c2cnc(-c3ncccn3)nc2CN1c1cc(F)cc(F)n1` (stereo not drawn) [Example 31, 6-(4,6-difluoro-2-pyridyl)-5-methyl-2-pyrimidin-2-yl-5,7-dihydropyrrolo[3,4-d]pyrimidine], for which the IC50 is 659 nM.

In the case of `CC1c2cnc(-c3ncccn3)nc2CN1c1cc(F)nc(F)c1` (stereo not drawn) [Example 32, 6-(2,6-difluoro-4-pyridyl)-5-methyl-2-pyrimidin-2-yl-5,7-dihydropyrrolo[3,4-d]pyrimidine], the IC50 worked out at 2000 nM.

Usually IC50 stands for the midpoint of a concentration-inhibition curve.
